Counter-ions that a name gives are not always drawn.
Key:
Assay type in all cases: binding
[1] = biological target: T1, Recombinant human integrin ανβ5 (Homo sapiens, UniProt P06756+P18084); test: Solid Phase Receptor Assay (SPRA) for ανβ5 function; conditions: plate-bound human vitronectin; read-out: αvβ5 SPRA IC50
T1 construct: purchased R&D Systems 2528-AV
Experimental: D. Solid Phase Receptor Assay (SPRA) for ανβ5 Function
Wells were washed 3 times with 150 μL TBS+ and then 150 μL of blocking buffer (TBS+ with 1% bovine serum albumin, Sigma A7906) was added. The plate was incubated for 1 hr at 37° C. and then washed 3× with TBS+ buffer. […] Compounds were diluted to 20 μM and then 1 μL was added to each well of the plate according to a standard template with each sample repeated in triplicate. After incubation for two hours at room temperature, the plate was washed 3× with 150 μL of TBS+ buffer. To each well, 50 μl of biotinylated anti-αν antibody (R&D Systems, BAF1219) at 0.5 μg/mL in TBS+/0.1% BSA at 0.5 μg/mL were added and the plate covered and incubated for 1 hr at room temperature. After washing the plate 3 with 150 μL of TBS+ buffer, 50 μL of streptavidin-conjugated horseradish peroxidase (R&D Systems, DY998) diluted in TBS+ blocking buffer were added to the wells and the plate incubated for 20 min at room temperature. The plate was washed 3× with TBS+ buffer followed by 50 μL of TMB substrate (Sigma T4444) added to each well in the dark and the plate incubated for 5 min at room temperature. 25 μL of 1.0 M phosphoric acid was added as a stop solution and the plates were read at 450 nm using a Spectramax plate reader.

[2] = biological target: T2, Recombinant human integrin ανβ6 (Homo sapiens, UniProt P06756+P18564); test: Solid Phase Receptor Assay (SPRA) for ανβ6 function; conditions: plate-bound human LAP; read-out: αvβ6 SPRA IC50
T2 construct: purchased R&D Systems 3817-AV
T2 sequence (P06756 31-992 limits assumed): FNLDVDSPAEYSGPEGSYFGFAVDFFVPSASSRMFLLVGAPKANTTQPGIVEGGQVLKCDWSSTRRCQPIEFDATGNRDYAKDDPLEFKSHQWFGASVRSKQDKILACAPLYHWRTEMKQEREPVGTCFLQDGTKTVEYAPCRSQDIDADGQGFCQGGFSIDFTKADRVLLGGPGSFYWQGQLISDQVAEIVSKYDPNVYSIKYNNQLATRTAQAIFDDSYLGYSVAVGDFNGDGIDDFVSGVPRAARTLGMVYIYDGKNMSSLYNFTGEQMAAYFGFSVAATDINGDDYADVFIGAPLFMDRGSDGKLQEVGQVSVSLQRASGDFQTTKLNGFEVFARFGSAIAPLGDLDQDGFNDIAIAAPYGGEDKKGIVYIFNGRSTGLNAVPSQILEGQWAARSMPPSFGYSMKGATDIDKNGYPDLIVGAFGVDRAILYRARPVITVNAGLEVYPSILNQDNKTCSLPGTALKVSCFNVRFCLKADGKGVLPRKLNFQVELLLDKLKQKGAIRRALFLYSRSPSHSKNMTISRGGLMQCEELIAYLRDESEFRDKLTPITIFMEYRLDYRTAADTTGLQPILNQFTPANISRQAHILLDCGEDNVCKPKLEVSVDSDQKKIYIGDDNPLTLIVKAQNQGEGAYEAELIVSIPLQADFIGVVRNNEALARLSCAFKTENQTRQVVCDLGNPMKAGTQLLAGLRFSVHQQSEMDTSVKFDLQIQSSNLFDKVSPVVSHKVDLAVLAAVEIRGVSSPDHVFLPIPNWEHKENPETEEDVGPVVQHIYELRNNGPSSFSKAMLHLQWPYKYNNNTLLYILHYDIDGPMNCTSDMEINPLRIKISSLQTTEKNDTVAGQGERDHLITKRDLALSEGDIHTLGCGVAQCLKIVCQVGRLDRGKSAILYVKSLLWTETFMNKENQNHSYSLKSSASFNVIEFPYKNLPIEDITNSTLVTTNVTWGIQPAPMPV
T2 sequence (P18564 22-707 limits assumed): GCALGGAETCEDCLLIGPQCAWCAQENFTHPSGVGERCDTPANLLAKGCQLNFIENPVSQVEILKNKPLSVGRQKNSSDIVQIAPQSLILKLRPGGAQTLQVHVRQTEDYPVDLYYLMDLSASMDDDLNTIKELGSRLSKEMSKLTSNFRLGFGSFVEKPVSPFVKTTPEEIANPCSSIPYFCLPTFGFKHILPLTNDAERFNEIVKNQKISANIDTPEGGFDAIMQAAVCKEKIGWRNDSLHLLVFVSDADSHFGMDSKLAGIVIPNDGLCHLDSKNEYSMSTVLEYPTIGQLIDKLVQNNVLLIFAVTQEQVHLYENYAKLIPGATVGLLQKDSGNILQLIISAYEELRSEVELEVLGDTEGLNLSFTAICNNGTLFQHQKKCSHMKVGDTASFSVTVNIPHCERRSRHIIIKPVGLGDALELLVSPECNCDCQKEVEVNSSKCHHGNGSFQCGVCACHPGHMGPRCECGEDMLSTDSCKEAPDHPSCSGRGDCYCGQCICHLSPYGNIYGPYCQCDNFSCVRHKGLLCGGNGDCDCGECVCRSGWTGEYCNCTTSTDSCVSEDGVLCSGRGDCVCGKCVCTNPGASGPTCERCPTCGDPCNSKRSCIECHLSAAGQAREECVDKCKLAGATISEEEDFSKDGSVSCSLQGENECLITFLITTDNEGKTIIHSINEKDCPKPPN
Experimental: E. Solid Phase Receptor Assay (SPRA) for ανβ6 Function
Wells were washed 3 times with 150 μL TBS+, and then 150 μL of blocking buffer (TBS+ with 1% bovine serum albumin, Sigma A7906) was added. The plate was incubated for 1 hr at 37° C., and then washed 3× with TBS+ buffer. […] Compounds were diluted to 20 μM and then 1 μL was added to each well of the plate according to a standard template with each sample repeated in triplicate. After incubation for two hours at room temperature, the plate was washed 3× with 150 μL of TBS+ buffer. To each well, 50 μL of biotinylated anti-αν antibody (R&D Systems, BAF1219) at 0.5 μg/mL in TBS+/0.1% BSA were added and the plate was covered and incubated for 1 hr at room temperature. After washing the plate 3× with 150 μL of TBS+ buffer, 50 μL of streptavidin-conjugated horseradish peroxidase (R&D Systems, DY998) diluted in TBS+ blocking buffer were added to the wells and the plate incubated for 20 min at room temperature. The plate was washed 3× with TBS+ buffer followed by 50 μL of TMB substrate (Sigma T4444) added to each well in the dark and the plate incubated for 10 min at room temperature. 25 μL of 1.0 M phosphoric acid was added as a stop solution and the plates were read at 450 nm using a Spectramax plate reader.

[3] = biological target: T3, Recombinant human integrin ανβ3 (Homo sapiens, UniProt P05106+P06756); test: Solid Phase Receptor Assay (SPRA) for ανβ3 function; conditions: plate-bound human vitronectin; read-out: αvβ3 SPRA IC50
T3 construct: purchased R&D Systems 3050-AV
T3 sequence (P06756 31-992 limits assumed): as the sequence (P06756 31-992 limits assumed) above
T3 sequence (P05106 27-718 limits assumed): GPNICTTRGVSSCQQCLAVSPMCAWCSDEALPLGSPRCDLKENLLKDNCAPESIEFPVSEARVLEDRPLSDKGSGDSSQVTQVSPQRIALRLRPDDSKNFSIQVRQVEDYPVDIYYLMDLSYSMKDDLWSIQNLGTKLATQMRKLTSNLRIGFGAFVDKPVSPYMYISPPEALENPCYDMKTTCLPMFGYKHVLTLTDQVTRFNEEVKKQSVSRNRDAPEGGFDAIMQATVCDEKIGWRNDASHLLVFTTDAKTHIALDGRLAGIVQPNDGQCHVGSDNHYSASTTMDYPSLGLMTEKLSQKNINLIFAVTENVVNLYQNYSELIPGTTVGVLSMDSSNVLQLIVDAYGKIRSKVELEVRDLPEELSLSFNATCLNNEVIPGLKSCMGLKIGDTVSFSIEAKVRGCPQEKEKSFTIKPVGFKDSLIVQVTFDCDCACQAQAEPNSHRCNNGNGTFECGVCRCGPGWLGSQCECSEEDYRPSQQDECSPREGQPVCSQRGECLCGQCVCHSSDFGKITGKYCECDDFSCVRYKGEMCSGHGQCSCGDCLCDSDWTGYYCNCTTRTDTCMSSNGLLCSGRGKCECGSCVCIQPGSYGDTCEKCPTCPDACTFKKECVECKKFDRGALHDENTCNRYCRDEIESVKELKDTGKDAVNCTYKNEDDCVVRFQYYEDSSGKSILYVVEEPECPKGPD
Experimental: C. Solid Phase Receptor Assay (SPRA) for ανβ3 Function
(§1) Wells were washed 3 times with 150 μL TBS+ and then 150 μL of blocking buffer (TBS+ with 1% bovine serum albumin, Sigma A7906) was added. The plate was incubated for 1 hr at 37° C. and then washed 3× with TBS+ buffer. […] Compounds were diluted to 20 μM and then 1 μL was added to each well of the plate according to a standard template with each sample repeated in triplicate. After incubation for two hours at room temperature, the plate was washed 3× with 150 μL of TBS+ buffer. To each well, 50 μL of biotinylated anti-αν antibody (R&D Systems, BAF1219) at 0.5 μg/mL in TBS+/0.1% BSA were added and the plate covered and incubated for 1 hr at room temperature. After washing the plate 3× with 150 μL of TBS+ buffer, 50 μL of streptavidin-conjugated horseradish peroxidase (R&D Systems, DY998) diluted in TBS+ blocking buffer were added to the wells and the plate incubated for 20 min at room temperature. The plate was washed 3× with TBS+ buffer followed by 50 μL of TMB substrate (Sigma, T4444) added to each well in the dark and the plate was incubated for 25 min at room temperature. 25 μL of 1.0 M phosphoric acid was added as a stop solution and the plates were read at 450 nm using a Spectramax plate reader.

[4] = biological target: T4, Recombinant human integrin ανβ8 (Homo sapiens, UniProt P06756+P26012); test: Solid Phase Receptor Assay (SPRA) for ανβ8 function; conditions: plate-bound human LAP; read-out: αvβ8 SPRA IC50
T4 construct: purchased R&D Systems 4135-AV
T4 sequence (P06756 31-992 limits assumed): as the sequence (P06756 31-992 limits assumed) above
T4 sequence (P26012 43-684 limits assumed): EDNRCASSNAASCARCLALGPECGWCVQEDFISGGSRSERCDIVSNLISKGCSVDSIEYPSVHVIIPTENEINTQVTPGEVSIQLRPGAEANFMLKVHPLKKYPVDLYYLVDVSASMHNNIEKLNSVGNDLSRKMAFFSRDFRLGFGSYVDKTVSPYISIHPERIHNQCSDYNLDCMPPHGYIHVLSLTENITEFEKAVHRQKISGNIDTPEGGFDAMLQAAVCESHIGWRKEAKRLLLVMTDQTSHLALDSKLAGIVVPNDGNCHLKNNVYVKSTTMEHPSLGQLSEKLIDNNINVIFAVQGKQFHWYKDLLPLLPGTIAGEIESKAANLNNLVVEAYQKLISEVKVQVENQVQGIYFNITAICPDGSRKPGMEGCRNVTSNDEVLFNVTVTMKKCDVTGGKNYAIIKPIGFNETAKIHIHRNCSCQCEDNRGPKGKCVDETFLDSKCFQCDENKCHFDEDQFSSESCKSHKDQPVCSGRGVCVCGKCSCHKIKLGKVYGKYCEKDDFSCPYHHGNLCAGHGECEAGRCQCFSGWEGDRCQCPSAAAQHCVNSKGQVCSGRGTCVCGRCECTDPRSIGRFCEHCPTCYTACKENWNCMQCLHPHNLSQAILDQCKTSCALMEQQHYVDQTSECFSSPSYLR
Experimental: F. Solid Phase Receptor Assay (SPRA) for ανβ8 Function
Wells were washed 3 times with 150 μL TBS+ and then 150 μL of blocking buffer (TBS+ with 1% bovine serum albumin, Sigma A7906) was added. The plate was incubated for 1 hr at 37° C. and then washed 3× with TBS+. […] Compounds were diluted to 20 μM and 1 μL was added to each well of the plate according to a standard template with each sample repeated in triplicate. After incubation for two hours at room temperature, the plate was washed 3× with 150 μL of TBS+. To each well, 50 μL of biotinylated anti-αν antibody (R&D Systems, BAF1219) at 1 μg/mL in TBS+/0.1% BSA were added and the plate was covered and incubated for 1 hr at room temperature. After washing the plate 3× with 150 μL. of TBS+ buffer, 50 μL of streptavidin-conjugated horseradish peroxidase (R&D Systems, DY998) diluted in TBS+ blocking buffer were added to the wells and the plate incubated for 20 min at room temperature. The plate was washed 3× with TBS+ followed by 50 μL of TMB substrate (Sigma T4444) added to each well in the dark and the plate incubated for 10 min at room temperature. 25 μL of 1.0 M phosphoric acid was added as a stop solution and the plates were read at 450 nm using a Spectramax plate reader.

[5] = biological target: T5, Recombinant human integrin ανβ1 (Homo sapiens, UniProt P05556+P06756); test: Solid Phase Receptor Assay (SPRA) for ανβ1 function; conditions: plate-bound human fibronectin; read-out: αvβ1 SPRA IC50
T5 construct: purchased R&D Systems 6579-AV
T5 sequence (P06756 31-992 limits assumed): as the sequence (P06756 31-992 limits assumed) above
T5 sequence (P05556 21-728 limits assumed): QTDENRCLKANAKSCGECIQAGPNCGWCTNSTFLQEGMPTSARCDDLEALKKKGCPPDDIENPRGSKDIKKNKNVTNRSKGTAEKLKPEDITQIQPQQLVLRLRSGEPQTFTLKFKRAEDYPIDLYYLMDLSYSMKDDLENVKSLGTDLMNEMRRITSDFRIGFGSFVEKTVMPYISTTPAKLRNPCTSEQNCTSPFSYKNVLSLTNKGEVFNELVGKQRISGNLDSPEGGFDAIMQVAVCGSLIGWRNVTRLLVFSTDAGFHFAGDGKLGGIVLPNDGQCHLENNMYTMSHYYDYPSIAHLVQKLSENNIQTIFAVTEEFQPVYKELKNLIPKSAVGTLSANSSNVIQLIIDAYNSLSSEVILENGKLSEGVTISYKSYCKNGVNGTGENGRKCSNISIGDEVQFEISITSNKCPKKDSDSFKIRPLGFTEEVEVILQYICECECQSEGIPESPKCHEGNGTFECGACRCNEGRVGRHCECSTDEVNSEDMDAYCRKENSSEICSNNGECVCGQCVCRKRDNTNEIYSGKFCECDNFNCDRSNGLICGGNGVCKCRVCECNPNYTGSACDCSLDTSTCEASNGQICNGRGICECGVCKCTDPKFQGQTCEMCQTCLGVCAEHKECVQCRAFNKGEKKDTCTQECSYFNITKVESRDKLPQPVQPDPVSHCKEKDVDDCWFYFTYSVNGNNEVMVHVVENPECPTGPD
Experimental: B. Solid Phase Receptor Assay (SPRA) for ανβ1 Function
as §1, with “μM and 1 μL” for “μM and then 1 μL”, “was washed 3 with 150” for “was washed 3× with 150”, “BAF1219) at 1 μg/mL in” for “BAF1219) at 0.5 μg/mL in”, “the plate incubated for” for “the plate was incubated for”

[6] = biological target: T6, Recombinant human integrin α5β1 (Homo sapiens, UniProt P05556+P08648); test: Solid Phase Receptor Assay (SPRA) for α5β1 function; conditions: plate-bound human fibronectin
T6 construct: purchased R&D Systems 3230-A5
Experimental: A. Solid Phase Receptor Assay (SPRA) for α5β1 Function
Wells were washed 3 times with 150 μL TBS+ and then 150 μL of blocking buffer (TBS+ with 1% bovine serum albumin, Sigma A7906) was added. The plate was incubated for 1 hr at 37° C. and then washed 3× with TBS+ buffer. […] Compounds were diluted to 20 μM and then 1 μL was added to each well of the plate according to a standard template with each sample repeated in triplicate. After incubation for two hours at room temperature, the plate was washed 3× with 150 μL of TBS+ buffer. To each well, 50 μL of biotinylated anti-α5 antibody (R&D Systems, BAF1864) at 0.5 μg/mL in TBS+/0.1% BSA were added and the plate covered and incubated for 1 hr at room temperature. After washing the plate 3× with 150 μL of TBS+ buffer, 50 μL of streptavidin-conjugated horseradish peroxidase (R&D Systems, DY998) diluted in TBS+ blocking buffer were added to the wells and the plate incubated for 20 min at room temperature. The plate was washed 3× with TBS+ buffer followed by 50 μL of room temperature TMB substrate (Sigma, T4444) added to each well in the dark and the plate incubated for 25 min at room temperature. 25 μL of 1.0 M phosphoric acid was added as a stop solution and the plates were read at 450 nm using a Spectramax plate reader.

T1 sequence (P06756 31-992 limits assumed): as the sequence (P06756 31-992 limits assumed) above
T1 sequence (P18084 24-719 limits assumed): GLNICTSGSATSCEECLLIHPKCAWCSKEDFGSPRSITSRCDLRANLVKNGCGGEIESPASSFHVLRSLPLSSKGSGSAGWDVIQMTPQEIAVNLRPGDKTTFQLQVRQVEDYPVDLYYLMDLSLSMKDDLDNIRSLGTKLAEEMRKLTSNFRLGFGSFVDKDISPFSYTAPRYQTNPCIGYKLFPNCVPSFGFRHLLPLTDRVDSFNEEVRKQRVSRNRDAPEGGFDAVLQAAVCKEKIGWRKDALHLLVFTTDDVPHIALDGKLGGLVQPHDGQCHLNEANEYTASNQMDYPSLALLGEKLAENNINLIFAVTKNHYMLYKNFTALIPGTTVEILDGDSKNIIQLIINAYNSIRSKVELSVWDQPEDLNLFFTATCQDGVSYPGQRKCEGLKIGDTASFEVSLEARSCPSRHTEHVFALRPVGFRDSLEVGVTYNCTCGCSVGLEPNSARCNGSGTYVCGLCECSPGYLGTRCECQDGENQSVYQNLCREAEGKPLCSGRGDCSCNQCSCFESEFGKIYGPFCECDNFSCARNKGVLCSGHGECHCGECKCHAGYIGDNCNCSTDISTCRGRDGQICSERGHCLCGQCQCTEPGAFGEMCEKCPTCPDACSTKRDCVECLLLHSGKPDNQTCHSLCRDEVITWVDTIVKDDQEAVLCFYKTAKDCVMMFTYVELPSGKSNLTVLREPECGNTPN

Row | Structure (SMILES) | IC50 [1] [nM] | IC50 [2] [nM] | IC50 [3] [nM] | IC50 [4] [nM] | IC50 [5] [nM] | IC50 [6] [nM]
1 | Cn1nc(CC(CC(=O)O)c2cc(C#N)cc(C(F)(F)F)c2)cc1OCCc1ccc2c(n1)NCCC2 (stereo not drawn) [Example 12, 3-(3-cyano-5-(trifluoromethyl)phenyl)-4-(1-methyl-5-(2-(5,6,7,8-tetrahydro-1,8-naphthyridin-2-yl)ethoxy)-1H-pyrazol-3-yl)butanoic Acid] | 0.1 | 27 | 4.3 | 14 | 4.5 | –
2 | CC(C)Oc1ccc(C(C)(C)C)cc1C(CC(=O)O)Cc1cc(OCCc2ccc3c(n2)NCCC3)n(C)n1 (stereo not drawn) [Example 35, 3-(5-tert-butyl-2-isopropoxy-phenyl)-4-[1-methyl-5-[2-(5,6,7,8-tetrahydro-1,8-naphthyridin-2-yl)ethoxy]pyrazol-3-yl]butanoic Acid Trifluoroacetate] | – | 1100 | – | 120 | 7.6 | 75

Source: patent US11306084B2, “Integrin antagonists” (Saint Louis University, priority 2016, dated 2022)
